Tests used:
[1] = target: T1, human CFTR (Homo sapiens, UniProt P13569); test: CFTR chloride channel activity in FRT cells; assay type: cell-based
T1 construct: expressed in transfected cells; host or cells: FRT (Fischer rat thyroid) cells; for F10 also expressing mutant YFP
Description: (§1) (A) The inhibition of mouse pendrin (mPDS)-mediated Cl^−/I^− exchange activity by F56 was measured in CHO-K1 cells (mean±S.E., n=5). The indicated concentration of F56 was pretreated for 10 minutes. (B) Summary of dose-response for inhibition of the human pendrin (hPDS)-mediated (closed circle, FIG. (a), C) and mPDS-mediated (open circle) Cl^−/I^− exchange activity. (C-F) Representative traces of intracellular pH in CHO-K1 cells expressing SLC26A3, SLC26A6, SLC26A7 and SLC26A9 were shown. The application of Cl^− free solution induced intracellular alkalization by Cl^−/HCO3^− exchange. The indicated concentration of F56 was pretreated for 10 minutes. (G) the effect of F56 (100 μM) on the CFTR chloride channel activity was measured in FRT cells expressing human CFTR. […] (H) The effect of F56 (100 μM) on the AN01 chloride channel activity was measured in FRT cells expressing human AN01. […] (I) The effect of F56 on the hERG (Kv11.1) potassium channel activity was measured in HEK293T cells expressing human Kv11.1 (mean±S.E., n=4). […] (J) The effect of F56 on the 5-HT2A channel activity was measured in FRT cells expressing human 5-HT2A (mean±S.E., n=4). […]
(§2) (A) The effect of F10 (30 μM) on the CFTR channel was measured in FRT cells expressing human CFTR and mutant YFP. […] (B) The effect of F10 (30 μM) on the AN01 channel activity was measured in FRT cells expressing human and mutant YFP. […]

[2] = target: T2, human AN01 (Homo sapiens, UniProt Q5XXA6, DEL476-501); test: AN01 chloride channel activity in FRT cells; assay type: cell-based
T2 construct: expressed in transfected cells; host or cells: FRT cells
Description: as §1, §2

[3] = 30 μM, FRT cells with mutant YFP

T1 sequence (P13569 whole entry): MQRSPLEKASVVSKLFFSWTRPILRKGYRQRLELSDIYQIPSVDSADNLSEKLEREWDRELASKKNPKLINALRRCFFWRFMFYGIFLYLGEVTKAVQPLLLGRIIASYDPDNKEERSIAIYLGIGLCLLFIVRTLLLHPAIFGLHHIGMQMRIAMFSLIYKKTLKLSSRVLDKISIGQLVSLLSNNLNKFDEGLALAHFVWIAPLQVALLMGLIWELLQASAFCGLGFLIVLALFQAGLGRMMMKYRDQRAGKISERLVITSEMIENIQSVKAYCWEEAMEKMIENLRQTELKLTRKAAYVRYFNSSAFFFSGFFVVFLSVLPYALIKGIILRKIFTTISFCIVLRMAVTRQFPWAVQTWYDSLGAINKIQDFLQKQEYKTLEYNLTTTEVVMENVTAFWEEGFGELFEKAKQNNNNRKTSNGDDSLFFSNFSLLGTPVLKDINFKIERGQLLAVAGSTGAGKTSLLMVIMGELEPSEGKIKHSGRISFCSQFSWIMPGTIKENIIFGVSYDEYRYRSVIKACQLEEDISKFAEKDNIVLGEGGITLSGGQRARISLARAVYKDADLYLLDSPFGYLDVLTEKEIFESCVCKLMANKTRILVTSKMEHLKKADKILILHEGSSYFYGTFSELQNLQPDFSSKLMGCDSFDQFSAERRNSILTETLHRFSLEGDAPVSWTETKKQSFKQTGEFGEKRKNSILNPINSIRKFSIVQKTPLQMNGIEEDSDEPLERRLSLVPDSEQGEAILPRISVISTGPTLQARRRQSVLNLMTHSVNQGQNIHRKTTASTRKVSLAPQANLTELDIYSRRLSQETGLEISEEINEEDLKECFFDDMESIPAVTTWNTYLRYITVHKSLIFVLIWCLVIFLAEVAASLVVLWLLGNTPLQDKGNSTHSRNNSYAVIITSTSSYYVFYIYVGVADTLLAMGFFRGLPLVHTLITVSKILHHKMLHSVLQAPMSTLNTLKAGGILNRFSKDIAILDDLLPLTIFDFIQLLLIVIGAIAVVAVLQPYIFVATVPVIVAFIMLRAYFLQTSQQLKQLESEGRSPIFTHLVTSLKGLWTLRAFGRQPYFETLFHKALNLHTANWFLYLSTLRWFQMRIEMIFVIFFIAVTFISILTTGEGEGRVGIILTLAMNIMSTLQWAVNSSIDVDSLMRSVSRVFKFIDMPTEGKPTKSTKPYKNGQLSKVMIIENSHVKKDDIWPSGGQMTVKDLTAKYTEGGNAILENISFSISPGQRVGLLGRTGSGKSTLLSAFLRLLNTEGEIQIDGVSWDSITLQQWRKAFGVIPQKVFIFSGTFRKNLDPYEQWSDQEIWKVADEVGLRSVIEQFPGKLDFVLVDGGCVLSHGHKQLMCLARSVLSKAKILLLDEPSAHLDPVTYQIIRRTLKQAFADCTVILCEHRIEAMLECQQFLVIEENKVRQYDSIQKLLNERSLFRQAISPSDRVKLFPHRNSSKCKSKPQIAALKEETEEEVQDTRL
T2 sequence (Q5XXA6 with tags, fused parts or gaps isoform Q5XXA6-5 DEL539-564): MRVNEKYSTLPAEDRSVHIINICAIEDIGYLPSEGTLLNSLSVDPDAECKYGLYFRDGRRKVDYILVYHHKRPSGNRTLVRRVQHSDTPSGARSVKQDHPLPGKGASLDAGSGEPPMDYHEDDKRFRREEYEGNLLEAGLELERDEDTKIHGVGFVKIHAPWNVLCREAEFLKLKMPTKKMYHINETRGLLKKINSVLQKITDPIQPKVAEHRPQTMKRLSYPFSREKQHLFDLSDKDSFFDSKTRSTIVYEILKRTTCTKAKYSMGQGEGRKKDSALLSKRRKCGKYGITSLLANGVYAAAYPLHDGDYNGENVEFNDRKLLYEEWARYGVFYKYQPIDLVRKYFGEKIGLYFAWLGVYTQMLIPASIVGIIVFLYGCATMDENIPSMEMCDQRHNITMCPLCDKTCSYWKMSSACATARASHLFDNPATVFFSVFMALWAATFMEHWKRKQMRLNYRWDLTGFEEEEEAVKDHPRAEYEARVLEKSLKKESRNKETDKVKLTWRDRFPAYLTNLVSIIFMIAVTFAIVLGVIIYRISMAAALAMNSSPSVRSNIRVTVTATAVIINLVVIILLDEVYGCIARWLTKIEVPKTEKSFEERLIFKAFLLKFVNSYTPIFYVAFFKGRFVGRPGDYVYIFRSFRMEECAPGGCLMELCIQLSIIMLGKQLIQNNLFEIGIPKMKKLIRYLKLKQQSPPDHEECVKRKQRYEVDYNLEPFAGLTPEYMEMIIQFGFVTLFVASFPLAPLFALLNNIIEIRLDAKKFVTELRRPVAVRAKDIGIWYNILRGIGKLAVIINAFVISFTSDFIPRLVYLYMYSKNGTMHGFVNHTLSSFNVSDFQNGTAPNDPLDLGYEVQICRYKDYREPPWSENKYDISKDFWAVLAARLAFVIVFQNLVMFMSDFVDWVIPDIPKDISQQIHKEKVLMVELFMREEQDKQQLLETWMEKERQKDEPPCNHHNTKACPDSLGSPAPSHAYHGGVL

| effect on CFTR activity ([1]; 100 μM, FRT cells, forskolin-activated) | effect on AN01 activity ([2]; 100 μM, FRT cells, ATP-activated) | SMILES | effect on CFTR channel activity [1, 3] | effect on AN01 channel activity [2, 3] |
| --- | --- | --- | --- | --- |
|  |  | CC(C)(C)c1ccc(C2=NC(=Cc3ccc[nH]3)C(=O)O2)cc1 [F10, 4-((1H-pyrrol-2-yl)methylene)-2-(4-(tert-butyl)phenyl)oxazol-5 (4H)-one] | did not show any effect | did not show any effect |
| not affected | not affected | CC(C)(C)c1ccc(C2=NC(=Cc3cccs3)C(=O)O2)cc1 [F56, 2-(4-(tert-butyl)phenyl)-4-(thiophen-2-ylmethylene)oxazol-5(4H)-one] |  |  |
